From PMC8083960, “Kanamycin-Mediated Conformational Dynamics of Escherichia coli Outer Membrane Protein TolC” (Frontiers in Molecular Biosciences, 2021) come the findings set out here.

The structures appear in SMILES notation.

This test deals with T1, TolC (Escherichia coli, UniProt P02930).
T1 construct: ~54 kDa by SDS-PAGE and MALDI; crystal structure cited as trimer, 471 residues per monomer
Nature of the test: isothermal titration calorimetry. Format: binding. From the text:
isothermal titration calorimetry on TolC

T1 sequence (P02930 23-493): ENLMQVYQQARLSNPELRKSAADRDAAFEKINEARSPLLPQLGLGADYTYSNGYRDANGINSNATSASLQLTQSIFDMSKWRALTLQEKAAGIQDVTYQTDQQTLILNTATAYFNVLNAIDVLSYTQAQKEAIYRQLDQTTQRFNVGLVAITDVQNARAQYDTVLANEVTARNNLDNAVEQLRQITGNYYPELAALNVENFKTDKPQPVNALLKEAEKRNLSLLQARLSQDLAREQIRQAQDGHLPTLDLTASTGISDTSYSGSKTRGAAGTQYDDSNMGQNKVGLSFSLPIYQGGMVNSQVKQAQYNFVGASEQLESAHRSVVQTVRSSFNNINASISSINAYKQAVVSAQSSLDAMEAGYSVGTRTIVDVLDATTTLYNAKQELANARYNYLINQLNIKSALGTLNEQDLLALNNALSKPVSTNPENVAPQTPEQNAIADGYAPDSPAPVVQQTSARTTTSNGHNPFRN

What is called Kd is the equilibrium constant for the complex coming apart. A high value points to lower affinity. Regarding `NC[C@H]1O[C@H](O[C@H]2[C@H](O)[C@@H](O[C@H]3O[C@H](CO)[C@@H](O)[C@H](N)[C@H]3O)[C@H](N)C[C@@H]2N)[C@H](O)[C@@H](O)[C@@H]1O` [kanamycin], the Kd is 42.7 µM.
